From ChEMBL document CHEMBL1255527, “Structure-activity relationships of tulipalines, tuliposides, and related compounds as inhibitors of MurA” (Bioorg Med Chem Lett, 2010)
pIC50: −log10 of the molar value. Converted amounts (≈) assume the structure as drawn. The source made the active and inactive calls. The rule behind the calls is not given here.

Tests used:
Escherichia coli [1] = assay: Antimicrobial activity against Escherichia coli BL21 assessed as growth inhibition at 200 uM in presence of minimum medium; format: functional
Escherichia coli BL21 = assay: Inhibition of Escherichia coli MurA; set-up: concentration or dose not given beside the values
[2] = system: Escherichia coli BL21 [C115D]; assay: Inhibition of Escherichia coli MurA C115D mutant at 25 uM
Escherichia coli [3] = assay: Antimicrobial activity against Escherichia coli BL21 assessed as growth inhibition at 200 uM after 24 hrs; format: functional; settings: for inhibition at 200 µM: BL21, BL21, 24 h
Escherichia coli [4] = assay: Antimicrobial activity against Escherichia coli BL21 expressing MurA C115D mutant assessed as growth inhibition at 200 uM after 20 hrs in presence of kanamycin and 0.5 mM IPTG; format: functional
[5] = Electrophilicity, glutathione reactivity of the compound assessed as half life; format: physicochemical; settings: glutathione (reaction with glutathione)
[6] = Inhibition of Escherichia coli MurA at 25 uM; set-up: species or system Escherichia coli BL21
Escherichia coli [7] = assay: Antimicrobial activity against Escherichia coli BL21 expressing MurA C115D mutant assessed as growth inhibition at 200 uM in presence of kanamycin; format: functional
Escherichia coli [8] = assay: Antimicrobial activity against Escherichia coli BL21 expressing MurA C115D mutant assessed as growth inhibition at 200 uM after 20 hrs in presence of kanamycin and 1 mM IPTG; format: functional
Escherichia coli [9] = assay: Antimicrobial activity against Escherichia coli BL21 assessed as growth inhibition at 200 uM in presence of IPTG; format: functional
Escherichia coli [10] = assay: Antimicrobial activity against Escherichia coli BL21 after 24 hrs; format: functional; settings: BL21, 24 h

| Structure (SMILES) | inhibition at 200 µM (Escherichia coli [1]) [%] | inhibition (Escherichia coli BL21; concentration not given here) [%] | inhibition [2] | inhibition (Escherichia coli [3]) | Activity (Escherichia coli [4]) | half-life [5] [h] | pIC50 [6] | Activity (Escherichia coli [7]) | Activity (Escherichia coli [8]) | Activity (Escherichia coli [9]) | inhibition at 200 µM (Escherichia coli [3]) [%] | MBC (Escherichia coli [10]) [µM] | MIC (Escherichia coli [10]) [µM] | inhibition (Escherichia coli [1]) | inhibition (Escherichia coli BL21) |
| --- | --- | --- | --- | --- | --- | --- | --- | --- | --- | --- | --- | --- | --- | --- | --- |
| C=C1CC(CO)OC1=O (centres undefined) | 47 | 17 | inactive | inactive |  |  |  |  |  |  |  |  |  |  |  |
| C=C(C(=O)O)C(O)CO (centres undefined) | 100 | 87 | inactive |  | inactive | < 7 | 5.07 | inactive | inactive | inactive | 18 | 25 (≈ 3.3 µg/mL) | 1.56 (≈ 0.206 µg/mL) |  |  |
| C=C1C(=O)O[C@@H]2/C=C(\CO)CC/C=C(\C)C[C@H](OC(=O)C(=C)[C@H](O)CO)[C@@H]12 [CNICIN] | 92 | 97 | inactive |  | inactive |  | 4.78 | inactive | inactive | inactive | 19 | 200 (≈ 75.7 µg/mL) | 25 (≈ 9.46 µg/mL) |  |  |
| C=C(CO)C(=O)OC |  |  | inactive | inactive |  |  |  |  |  |  |  |  |  | inactive | inactive |
| C=C(C(=O)OC)C(O)C1COC(C)(C)O1 (centres undefined) |  |  | inactive | inactive |  |  |  |  |  |  |  |  |  | inactive | inactive |
| C=C(CP(=O)(O)O)C(=O)OC |  |  | inactive | inactive |  |  |  |  |  |  |  |  |  | inactive | inactive |
| C=C(C(=O)O[C@@H]1O[C@H](CO)[C@@H](O)[C@H](O)[C@H]1O)[C@@H](O)CO [1-TULIPOSIDE B] | 97 | 84 | inactive |  |  |  | 5.30 |  |  |  | 64 | 50 (≈ 14.7 µg/mL) | 6.25 (≈ 1.84 µg/mL) |  |  |
| C=C(C(=O)O)C(O)C(O)CO (centres undefined) |  |  | inactive | inactive |  |  |  |  |  |  |  |  |  | inactive | inactive |
| C=C1C(=O)OC(CO)C1O (centres undefined) | 102 | 74 | inactive |  |  |  | 5.18 |  |  |  | 26 |  |  |  |  |
| C=C(C(=O)OC)C(O)C(O)CO (centres undefined) |  | 77 | 10% |  |  |  | 5.20 |  |  |  | 17 |  |  |  |  |
| C=C(CBr)C(=O)OC [METHYL BROMOMETHYL ACRYLATE] | 101 | 55 | inactive |  |  |  |  |  |  |  | 20 |  |  |  |  |
| C=C(CCO)C(=O)O |  |  | inactive |  |  |  |  |  |  |  |  |  |  | inactive | inactive |
| C=C(CO)C(=O)O |  |  | inactive | inactive |  | > 60 |  |  |  |  |  |  |  | inactive | inactive |
| C=C1CCOC1=O [TULIPALINE A] |  |  | inactive |  |  |  |  |  |  |  | 5 |  |  | inactive | inactive |
| C=C1C(=O)OCC1O (racemic) [(+/-)-TULIPALINE B] | 93 | 97 | inactive |  | inactive |  | 5.70 | inactive | inactive | inactive | 62 | 200 (≈ 22.8 µg/mL) | 12.5 (≈ 1.43 µg/mL) |  |  |
| C=C(C(=O)OC)C(OC(C)=O)C(O)CO (centres undefined) | 98 | 79 | 10% |  |  |  | 5.35 |  |  |  | 30 |  |  |  |  |
| C=C(CP(=O)(OCC)OCC)C(=O)OC |  | 20 | inactive | inactive |  |  |  |  |  |  |  |  |  | inactive |  |
| C=C(CCO)C(=O)O[C@@H]1O[C@H](CO)[C@@H](O)[C@H](O)[C@H]1O |  | 11 | inactive | inactive |  |  |  |  |  |  |  |  |  | inactive |  |
| C[C@@H]1O[C@@H]1P(=O)(O)O [FOSFOMYCIN] | 96 | 99 | inactive |  | Active | > 60 | 7.00 | inactive | Active | inactive | 100 | 200 (≈ 27.6 µg/mL) | 50 (≈ 6.9 µg/mL) |  |  |
| C=C1C(=O)OC(CBr)C1O (centres undefined) | 103 | 85 | 18% |  |  |  | 4.98 |  |  |  | 84 |  |  |  |  |
| C=C1CC(COC(C)=O)OC1=O (centres undefined) | 74 |  | inactive | inactive |  |  |  |  |  |  |  |  |  |  | inactive |
| C=C(CP(=O)(O)O)C(=O)O |  | 13 | inactive | inactive |  |  |  |  |  |  |  |  |  | inactive |  |
